Assay [1] has as its system Plasmodium falciparum. Description: microbe, parasite or virus in culture.
Description: (§1) In vitro inhibitory activity against chloroquine-resistant Plasmodium falciparum W2 Indochina
Assay [2] deals with Plasmodium falciparum. Description: microbe, parasite or virus in culture. The source holds these as a separate data set.
Description: (§2) In vitro inhibitory activity against chloroquine-sensitive Plasmodium falciparum African D6
The test system of assay [3] is Plasmodium falciparum.
Description: as §1
Assay [4] deals with Plasmodium falciparum. The source holds these as a separate data set.
Description: as §2

The text below walks through data of ChEMBL document CHEMBL1135585, “Mixed steroidal 1,2,4,5-tetraoxanes: antimalarial and antimycobacterial activity” (J Med Chem, 2002).

What is called IC50 is the concentration that inhibits the measured activity by half.

Regarding `COC(=O)CCC(C)C1CC[C@H]2[C@@H]3[C@H](OC(C)=O)C[C@@H]4CC5(CC[C@]4(C)[C@H]3C[C@H](OC(C)=O)[C@]12C)OOC1(CCCCC1C)OO5` (some centres not stated), the IC50 stood at 15.6 nM in the assay with Plasmodium falciparum [1] and 27 nM in the assay on Plasmodium falciparum [2].

Regarding `CCNC(=O)CCC(C)C1CC[C@H]2[C@@H]3[C@H](OC(C)=O)C[C@@H]4CC5(CC[C@]4(C)[C@H]3C[C@H](OC(C)=O)[C@]12C)OOC1(CCCCC1C)OO5` (some centres not stated), the IC50 with Plasmodium falciparum [1] was 6.97 nM; with Plasmodium falciparum [2] it was 12.7 nM.

On to `CNC(=O)CCC(C)C1CC[C@H]2[C@@H]3[C@H](OC(C)=O)C[C@@H]4CC5(CC[C@]4(C)[C@H]3C[C@H](OC(C)=O)[C@]12C)OOC1(CCCCC1C)OO5` (some centres not stated), for which the IC50 in the assay with Plasmodium falciparum [1] stood at 10 nM; in the assay on Plasmodium falciparum [2], 15.2 nM.

For `COC(=O)CCC(C)C1CC[C@H]2[C@@H]3[C@H](OC(C)=O)C[C@@H]4CC5(CC[C@]4(C)[C@H]3C[C@H](OC(C)=O)[C@]12C)OOC1(CC(C)CCC1C(C)C)OO5` (some centres not stated), the half-maximal inhibitory concentration (IC50) was 73.2 nM in the assay on Plasmodium falciparum [1] and 154 nM in the assay with Plasmodium falciparum [2].

In the case of `CC(=O)O[C@H]1C[C@H]2[C@@H]([C@H](OC(C)=O)C[C@@H]3CC4(CC[C@@]32C)OOC2(CCCCC2C)OO4)[C@@H]2CCC(C(C)CCC(N)=O)[C@@]12C` (some centres not stated), the IC50 was determined as 11.1 nM in the assay on Plasmodium falciparum [1] and 17.3 nM with Plasmodium falciparum [2].

For `CCCNC(=O)CCC(C)C1CC[C@H]2[C@@H]3[C@H](OC(C)=O)C[C@@H]4CC5(CC[C@]4(C)[C@H]3C[C@H](OC(C)=O)[C@]12C)OOC1(CCCCC1C)OO5` (some centres not stated), the results for the IC50 in the assay with Plasmodium falciparum [1] and in the assay on Plasmodium falciparum [2] were 9.29 nM and 13.2 nM, respectively.

For `COC(=O)CCC(C)C1CC[C@H]2[C@@H]3[C@H](OC(C)=O)C[C@@H]4CC5(CC[C@]4(C)[C@H]3C[C@H](OC(C)=O)[C@]12C)OOC1(OO5)C(C)CCCC1C` (some centres not stated), the figures for the IC50 in the assay on Plasmodium falciparum [1] and with Plasmodium falciparum [2] were 357 nM and 31.2 nM, respectively.

Turning to `CC(=O)O[C@H]1C[C@H]2[C@@H]([C@H](OC(C)=O)C[C@@H]3CC4(CC[C@@]32C)OOC2(CCCCC2C)OO4)[C@@H]2CCC(C(C)CCC(=O)O)[C@@]12C` (some centres not stated), the IC50 in the assay on Plasmodium falciparum [1] was determined as 37.5 nM; in the assay on Plasmodium falciparum [2], 67.6 nM.

In the case of `COC(=O)CCC(C)C1CC[C@H]2[C@@H]3[C@H](OC(C)=O)C[C@@H]4CC5(CC[C@]4(C)[C@H]3C[C@H](OC(C)=O)[C@]12C)OOC1(CCCCCCC1)OO5` (some centres not stated), the IC50 was determined as 20 nM with Plasmodium falciparum [1] and 48.4 nM in the assay on Plasmodium falciparum [2].

As to `CC(=O)O[C@H]1C[C@H]2[C@@H]([C@H](OC(C)=O)C[C@@H]3CC4(CC[C@@]32C)OOC2(CCCCC2)OO4)[C@@H]2CCC(C(C)CCC(=O)O)[C@@]12C` (some centres not stated), the IC50 with Plasmodium falciparum [1] stood at 19.2 nM; with Plasmodium falciparum [2], 11.8 nM.

On to `COC(=O)CCC(C)C1CC[C@H]2[C@@H]3[C@H](OC(C)=O)C[C@@H]4CC5(CC[C@]4(C)[C@H]3C[C@H](OC(C)=O)[C@]12C)OOC1(CCCCC1)OO5` (some centres not stated), for which the IC50 came to 17 nM in the assay on Plasmodium falciparum [1] and 21.5 nM in the assay on Plasmodium falciparum [2].

Take `COC(=O)CNC(=O)CCC(C)C1CC[C@H]2[C@@H]3[C@H](OC(C)=O)C[C@@H]4CC5(CC[C@]4(C)[C@H]3C[C@H](OC(C)=O)[C@]12C)OOC1(CCCCC1)OO5` (some centres not stated): the IC50 worked out at 10.8 nM in the assay with Plasmodium falciparum [1] and 22 nM with Plasmodium falciparum [2].

For `COC(=O)CCC(C)C1CC[C@H]2[C@@H]3[C@H](OC(C)=O)C[C@@H]4CC5(CC[C@]4(C)[C@H]3C[C@H](OC(C)=O)[C@]12C)OOC1(CCCC1)OO5` (some centres not stated), the IC50 with Plasmodium falciparum [1] was 27.7 nM; with Plasmodium falciparum [2] it was 39.1 nM.

On to `CCCNC(=O)CCC(C)C1CC[C@H]2[C@@H]3[C@H](OC(C)=O)C[C@@H]4CC5(CC[C@]4(C)[C@H]3C[C@H](OC(C)=O)[C@]12C)OOC1(CCCCC1)OO5` (some centres not stated), for which the IC50 with Plasmodium falciparum [1] stood at 6.8 nM; in the assay with Plasmodium falciparum [2], 14.8 nM.

Regarding `CC(=O)O[C@H]1C[C@H]2[C@@H]([C@H](OC(C)=O)C[C@@H]3CC4(CC[C@@]32C)OOC2(CCCCC2)OO4)[C@@H]2CCC(C(C)CCC(N)=O)[C@@]12C` (some centres not stated), the IC50 amounted to 4.74 nM with Plasmodium falciparum [1] and 11.8 nM in the assay on Plasmodium falciparum [2].

Consider `CCC1CCC2(CC1)OOC1(CC[C@@]3(C)[C@H](C[C@@H](OC(C)=O)[C@@H]4[C@@H]3C[C@H](OC(C)=O)[C@]3(C)C(C(C)CCC(N)=O)CC[C@@H]43)C1)OO2` (mixture of isomers; 20), for which the IC50 worked out at 10.7 nM with Plasmodium falciparum [3] and 8.4 nM with Plasmodium falciparum [4].

With `CCC1CCC2(CC1)OOC1(CC[C@@]3(C)[C@H](C[C@@H](OC(C)=O)[C@@H]4[C@@H]3C[C@H](OC(C)=O)[C@]3(C)C(C(C)CCC(=O)NC)CC[C@@H]43)C1)OO2` (mixture of isomers; 21), the IC50 with Plasmodium falciparum [4] turned out to be 7.21 nM; in the assay with Plasmodium falciparum [1], 7.82 nM.

For `CCCNC(=O)CCC(C)C1CC[C@H]2[C@@H]3[C@H](OC(C)=O)C[C@@H]4CC5(CC[C@]4(C)[C@H]3C[C@H](OC(C)=O)[C@]12C)OOC1(CCC(CC)CC1)OO5` (mixture of isomers; 23), the IC50 with Plasmodium falciparum [3] was determined as 4.51 nM; in the assay with Plasmodium falciparum [4] it was 8.34 nM.

`CCC1CCC2(CC1)OOC1(CC[C@@]3(C)[C@H](C[C@@H](OC(C)=O)[C@@H]4[C@@H]3C[C@H](OC(C)=O)[C@]3(C)C(C(C)CCC(N)=O)CC[C@@H]43)C1)OO2` (mixture of isomers; 24): the IC50 in the assay on Plasmodium falciparum [4] amounted to 31.1 nM; in the assay on Plasmodium falciparum [1] it was 12.5 nM.

In the case of `CCC1CCC2(CC1)OOC1(CC[C@@]3(C)[C@H](C[C@@H](OC(C)=O)[C@@H]4[C@@H]3C[C@H](OC(C)=O)[C@]3(C)C(C(C)CCC(=O)NC)CC[C@@H]43)C1)OO2` (mixture of isomers; 25), the IC50 in the assay with Plasmodium falciparum [3] was determined as 6.15 nM; in the assay with Plasmodium falciparum [4], 27.9 nM.

Consider `CCNC(=O)CCC(C)C1CC[C@H]2[C@@H]3[C@H](OC(C)=O)C[C@@H]4CC5(CC[C@]4(C)[C@H]3C[C@H](OC(C)=O)[C@]12C)OOC1(CCC(CC)CC1)OO5` (mixture of isomers; 26), for which the IC50 in the assay on Plasmodium falciparum [3] was 18.1 nM; with Plasmodium falciparum [4] it was 23.1 nM.

`CCCNC(=O)CCC(C)C1CC[C@H]2[C@@H]3[C@H](OC(C)=O)C[C@@H]4CC5(CC[C@]4(C)[C@H]3C[C@H](OC(C)=O)[C@]12C)OOC1(CCC(CC)CC1)OO5` (mixture of isomers; 27): the IC50 with Plasmodium falciparum [3] is 123 nM; with Plasmodium falciparum [4] it was 90.2 nM.

As to `CCC1CCC2(CC1)OOC1(CC[C@@]3(C)[C@H](C[C@@H](OC(C)=O)[C@@H]4[C@@H]3C[C@H](OC(C)=O)[C@]3(C)C(C(C)CCC(=O)OC)CC[C@@H]43)C1)OO2` (single isomer, unassigned; 3i), the values for the IC50 in the assay on Plasmodium falciparum [3] and with Plasmodium falciparum [4] were 15.5 nM and 6.73 nM, respectively.

For `CCC1CCC2(CC1)OOC1(CC[C@@]3(C)[C@H](C[C@@H](OC(C)=O)[C@@H]4[C@@H]3C[C@H](OC(C)=O)[C@]3(C)C(C(C)CCC(=O)OC)CC[C@@H]43)C1)OO2` (single isomer, unassigned; 3j), the IC50 in the assay on Plasmodium falciparum [4] turned out to be 17.7 nM; with Plasmodium falciparum [1], 28.3 nM.

For `COC(=O)CCC(C)C1CC[C@H]2[C@@H]3[C@H](OC(C)=O)C[C@@H]4CC5(CC[C@]4(C)[C@H]3C[C@H](OC(C)=O)[C@]12C)OOC1(CCC(C)CC1)OO5` (stereo in doubt; 3h), the figures for the IC50 in the assay with Plasmodium falciparum [3] and in the assay on Plasmodium falciparum [4] were 13.2 nM and 24.6 nM, respectively.

With `COC(=O)CCC(C)C1CC[C@H]2[C@@H]3[C@H](OC(C)=O)C[C@@H]4CC5(CC[C@]4(C)[C@H]3C[C@H](OC(C)=O)[C@]12C)OOC1(CCC(C(C)(C)C)CC1)OO5` (stereo in doubt; 3k), the results for the IC50 with Plasmodium falciparum [3] and in the assay on Plasmodium falciparum [4] were 52.7 nM and 107 nM, respectively.

For `COC(=O)CCC(C)C1CC[C@H]2[C@@H]3[C@H](OC(C)=O)C[C@@H]4CC5(CC[C@]4(C)[C@H]3C[C@H](OC(C)=O)[C@]12C)OOC1(CCC(C(C)(C)C)CC1)OO5` (stereo in doubt; 3l), the IC50 with Plasmodium falciparum [4] was determined as 51.9 nM; in the assay with Plasmodium falciparum [1], 27.8 nM.

As for `CC(=O)O[C@H]1C[C@H]2[C@@H]([C@H](OC(C)=O)C[C@@H]3CC4(CC[C@@]32C)OOC2(CCC(C)CC2)OO4)[C@@H]2CCC(C(C)CCC(=O)O)[C@@]12C` (stereo in doubt; 4h), the figures for the IC50 with Plasmodium falciparum [3] and in the assay with Plasmodium falciparum [4] were 17.7 nM and 31.1 nM, respectively.

As to `CCC1CCC2(CC1)OOC1(CC[C@@]3(C)[C@H](C[C@@H](OC(C)=O)[C@@H]4[C@@H]3C[C@H](OC(C)=O)[C@]3(C)C(C(C)CCC(=O)O)CC[C@@H]43)C1)OO2` (stereo in doubt; 4j), the IC50 in the assay on Plasmodium falciparum [3] is 14.4 nM; in the assay with Plasmodium falciparum [4], 9.83 nM.

`CC(=O)O[C@H]1C[C@H]2[C@@H]([C@H](OC(C)=O)C[C@@H]3CC4(CC[C@@]32C)OOC2(CCC(C)CC2)OO4)[C@@H]2CCC(C(C)CCC(N)=O)[C@@]12C` (stereo in doubt; 16): the concentration for half-maximal inhibition (IC50) in the assay with Plasmodium falciparum [3] came to 14.1 nM; in the assay with Plasmodium falciparum [4], 20 nM.

Take `CNC(=O)CCC(C)C1CC[C@H]2[C@@H]3[C@H](OC(C)=O)C[C@@H]4CC5(CC[C@]4(C)[C@H]3C[C@H](OC(C)=O)[C@]12C)OOC1(CCC(C)CC1)OO5` (stereo in doubt; 17): the values for the IC50 in the assay on Plasmodium falciparum [3] and in the assay on Plasmodium falciparum [4] were 11.9 nM and 16.7 nM, respectively.

For the compound `CCNC(=O)CCC(C)C1CC[C@H]2[C@@H]3[C@H](OC(C)=O)C[C@@H]4CC5(CC[C@]4(C)[C@H]3C[C@H](OC(C)=O)[C@]12C)OOC1(CCC(C)CC1)OO5` (stereo in doubt; 18), the values for the IC50 with Plasmodium falciparum [3] and in the assay with Plasmodium falciparum [4] were 9.93 nM and 15.6 nM, respectively.

Consider `CCCNC(=O)CCC(C)C1CC[C@H]2[C@@H]3[C@H](OC(C)=O)C[C@@H]4CC5(CC[C@]4(C)[C@H]3C[C@H](OC(C)=O)[C@]12C)OOC1(CCC(C)CC1)OO5` (stereo in doubt; 19), for which the IC50 in the assay with Plasmodium falciparum [3] was 83 nM; in the assay on Plasmodium falciparum [4], 84.9 nM.

In the assay with Plasmodium falciparum [2], `OC(c1cc(C(F)(F)F)nc2c(C(F)(F)F)cccc12)C1CCCCN1` (configuration not stated) [MEFLOQUINE] returned an IC50 of 28.3 nM.
